Results as given in publication PMC9469500, “Targeting an Initiator Allergen Provides Durable and Expansive Protection against House Dust Mite Allergy” (ACS Pharmacology & Translational Science, 2022).
In brackets after ≈: the same amount, converted by molar mass.

What was measured:
unsensitized BN rats = experiment: HDM extract challenge in unsensitized (naive) BN rats, duration of protection; format: in vivo
permeability (Papp) = format: in vitro ADME; conditions: not told
plasma stability (rat) = format: in vitro ADME
thermodynamic solubility = format: physicochemical; conditions: thermodynamic from solid
[1] = tested on: rat airway epithelial cell line L2; experiment: Cellular stability in L2 cells; format: in vitro ADME; conditions: 100 nM compound
Method: (§1) Cellular Stability of Compounds
(§2) The cellular stability of compounds in vitro was tested using rat airway epithelial cell line L2 and rat alveolar macrophage line NR8383 (ATCC©CRL-2192™). Assays were performed in replicate and the data expressed as mean ± s.e. mean. L2 cells were cultured to confluence in T25 flasks or 24 -well plates using Kaighn’s modification of Ham’s F12 medium (F12K). Cells were prepared for assay by washing 3 times with serum-free F12K. NR8383 Airway macrophages were grown in suspension culture in F12K, collected by centrifugation, washed in serum-free medium and aliquoted into test plates (1.4 x 10^6 cells/well). Both cell lines were treated with ADI compounds (100 nM) in serum -free F12K in a 5% CO 2 environment at 37 °C. Samples were removed for quantitative analysis by LC -MS-MS using appropriate multiple reaction monitoring transitions for each analyte. […]
(§3) n-Octanol (0.7 mL), pre -saturated with 10 mM PBS, pH7.4, was added to test compound (~1 mg) in a 2 mL HPLC vial followed by PBS (0. 7 mL), which had been pre -saturated with n -octanol. The mixture was shaken for 90 min before centrifugation for 10 min at 4,000 rpm. The upper organic layer (0.2 mL) and the aqueous layer (0.5 mL) were removed for analysis by LC-MS. Peak identity was confirmed by mass spectrometry and concentration assessed spectrophotometrically using a diode array detector. The log

[2] = tested on: rats sensitized to the HDM allergen extract; experiment: HDM extract challenge in rats sensitized to the HDM allergen extract (BAL cells and mediators); format: in vivo, BN rats
Description: Control animals received saline vehicle treatment.

[3] = Plasma protein binding (human); format: in vitro ADME
Method: Plasma Protein Binding Assay
Plasma protein binding (PPB) was determined using Rapid Equilibrium Dialysis chambers with 8 kDa cut-off inserts (Fisher Scientific UK Ltd, Leicestershire, UK). Rat (Sprague Dawley strain) plasma EDTA K2 (pooled, mixed sex, SeraLab, West Sussex, UK) was centrifuged (13,000 x g, 10 min) to remove precipitates before addition of compounds (initial concentration 5 µM). Concentrations were determined by liquid chromatography-tandem mass spectrometry (LC-MS-MS) (AB Sciex 3200 QTrap) after 4 h incubation at 37 °C with binding being calculated from the concentration of compound in each chamber. Assays were performed in replicate and the data expressed as mean ± s.e.
Cellular Stability of Compounds […]
Kaighn’s modification of Ham’s F12 medium (F12K). Cells were prepared for assay by washing 3 times with serum-free F12K. NR8383 Airway macrophages were grown in suspension culture in F12K, collected by centrifugation, washed in serum-free medium and aliquoted into test plates (1.4 x 10^6 cells/well). Both cell lines were treated with ADI compounds (100 nM) in serum -free F12K in a 5% CO 2 environment at 37 […]
n-Octanol (0.7 mL), pre -saturated with 10 mM PBS, pH7.4, was added to test compound (~1 mg) in a 2 mL HPLC vial followed by PBS (0. 7 mL), which had been pre -saturated with n -octanol. […]

[4] = hepatocyte stability (rat); format: in vitro ADME; conditions: hepatocytes
plasma stability (human) = format: in vitro ADME
[5] = hepatocyte stability (human); format: in vitro ADME; conditions: hepatocytes
[6] = tested on: rat alveolar macrophage line NR8383; experiment: Cellular stability in macrophages; format: in vitro ADME; conditions: 100 nM compound
Method: as §1, §2, §3

[7] = HDM-naive rats, 15 μg/kg i.t. aerosol 2 h prior to HDM 10, BAL 48 h
[8] = single i.t. dose (15 μg/kg compound 1, 46 μg/kg compound 2), BAL 48 h
[9] = HDM 1, dosed 2 or 4 h before challenge, BAL 48 h
[10] = HDM 10, single i.t. aerosol dose 2 h before (15 μg/kg compound 1, 46 μg/kg compound 2), BAL 48 h
[11] = stronger challenge HDM 10, 15 μg/kg i.t. aerosol 2 h prior
[12] = read-out: hepatocyte intrinsic clearance

Papp (permeability (Papp)): 6.2 ×10⁻⁶ cm/s
remaining at 2 h (plasma stability (rat)): 100%
solubility thermodynamic (thermodynamic solubility): 84 µM (≈ 43.9 µg/mL)
cell stability [1]: 100; 100
bioavailability (Pharmacokinetics in rats; male, Sprague-Dawley, rat, plasma, po, 5 mg/kg): 39%
half-life (Pharmacokinetics in rats; male, Sprague-Dawley, rat, plasma, po, 5 mg/kg, rat p.o., fasted): 2.1 h
half-life (Pharmacokinetics in rats; male, Sprague-Dawley, rat, plasma, po, 5 mg/kg, rat p.o., fed): 2.9 h
volume of distribution (Pharmacokinetics in rats; rat p.o.): 0.9 L/kg
clearance (Pharmacokinetics in rats; rat p.o., fasted): 27 (fasted) mL/min/kg
fraction unbound at 4 h, 5 µM [3]: 0.004
half-life [4]: 1.97 h
CLint scaled [4, 12]: 28.2 mL/min/kg
remaining at 2 h (plasma stability (human)): 100%
half-life [5]: 3.02 h
CLint scaled [5, 12]: 11.7 mL/min/kg
cell stability [6]: 100; 100
Structure (SMILES): CC(C)[C@H](NC(=O)[C@H](C)NC(=O)[C@@H](NC(=O)c1ccccc1)C(C)(C)C)C(=O)C(=O)NCc1ccccc1 [Compound 1, N-{(S)-1-[(S)-1-((S)-1-benzylaminooxalyl-2-methyl-propylcarbamoyl)-ethylcarbamoyl]-2,2-dimethyl-propyl}-benzamide]
neutrophil response (unsensitized BN rats; BAL performed 24 h after HDM extract challenge, dosed 2 h prior): clear inhibition
BAL monocyte/macrophage numbers (unsensitized BN rats; [7]): suppressed
BAL neutrophil numbers (unsensitized BN rats; [7]): suppressed
cellularity of BAL fluid (unsensitized BN rats; [7]): suppressed
inhibition at 0.015 mg/kg (unsensitized BN rats; Rattus norvegicus, Eosinophil, inhaled or nasal, 48 h, read-out: inhibition of eosinophil response at peak): > 60%
onset: temporal separation between drug dosing and HDM challenge required to achieve 50% inhibition of the eosinophil response (unsensitized BN rats; estimated, Figure 5D–F, in words): faster in onset
performance in vivo (maximum inhibition of the eosinophil response, Figure 5A) (unsensitized BN rats; focused library, durability of inhibition studies): performed well
effects on BAL neutrophils (unsensitized BN rats; intervening pretreatment intervals, BAL 48 h): insignificant
inhibition of BAL monocytes/macrophages (significance) (unsensitized BN rats; pretreatment 60 min, 15 μg/kg i.t., BAL 48 h): significant
effects on BAL neutrophils (unsensitized BN rats; short or long pretreatment intervals, BAL 48 h): inhibitory
effect on BAL monocytes/macrophages (unsensitized BN rats; shorter pretreatment times, BAL 48 h): modest inhibition
effect on eosinophils with 6–8 h separation of dose and challenge (unsensitized BN rats; [8]): substantial inhibition
time of administration before challenge giving peak effects on eosinophils (unsensitized BN rats; [8]): 2 h
BAL eosinophil responses ([2]; HDM 1 (1 μg Der p 1), dosed i.t. aerosol 2 or 4 h before challenge, BAL 48 h): suppressed
BAL neutrophil recruitment [2, 9]: No effect
CCL-2 in BAL fluid [2, 9]: suppressed
CCL-20 in BAL fluid [2, 9]: suppressed
IL-13 in BAL fluid [2, 9]: suppressed
IL-33 in BAL fluid [2, 9]: suppressed
TSLP in BAL fluid ([2]; HDM 1, dosed 2 h before challenge, BAL 48 h): suppressed
TSLP in BAL fluid ([2]; HDM 1, dosed 4 h before challenge, BAL 48 h, 'except' = not suppressed): except for TSLP
changes in BAL cells after HDM challenge ([2]; HDM 10 (10 μg Der p 1) i.t. aerosol, single i.t. aerosol dose 2 h before (15 μg/kg compound 1, 46 μg/kg compound 2), BAL 48 h): attenuated
BAL eosinophils after HDM challenge [2, 10]: eosinophil suppression
BAL monocytes/macrophages after HDM challenge [2, 10]: No effects
BAL neutrophil responses after HDM challenge [2, 10]: not significant
IL-6 responses in BAL [2, 11]: unaffected
IL-13 in BAL [2, 11]: inhibitory effects
IL-33 in BAL [2, 11]: inhibitory effects
TSLP in BAL [2, 11]: inhibitory effects
